Consider 15 molecules from ChEMBL document CHEMBL1121986, “Spiro oxazolidinedione aldose reductase inhibitors” (J Med Chem, 1982).

Calls of active or inactive are those of the source. The rule behind the calls is not given here. A value given as a limit tells only on which side of the number the result lay.

Assay [1] deals with T1, Aldo-keto reductase family 1 member B1 (Bos taurus, UniProt P16116). Put plainly: Inhibitory concentration was determined against partially purified calf lens aldose reductase using glyceraldehyde as a substrate.
The subject of assay [2] is Rattus norvegicus. Put plainly: Dose required for reduction of sorbitol accumulation in the sciatic nerve in streptozotocin-diabetic rats in vivo. Format: functional.
Assay [3] deals with T1, Aldo-keto reductase family 1 member B1. Nature of the assay: Inhibitory concentration was determined against partially purified calf lens aldose reductase using glyceraldehyde as a substrate; 10e-6/10e-7.
The test system of assay [4] is Rattus norvegicus. Nature of the assay: Dose required for reduction of sorbitol accumulation in the sciatic nerve in streptozotocin-diabetic rats in vivo; Inactive. Format: functional, organism-based.
Assay [5] concerns the target T1, Aldo-keto reductase family 1 member B1. Put plainly: Inhibitory concentration was determined against partially purified calf lens aldose reductase using glyceraldehyde as a substrate; 10e-4/10e-5.
Assay [6] has the same target. Put plainly: Inhibitory concentration was determined against partially purified calf lens aldose reductase using glyceraldehyde as a substrate; 10e-7/10e-8.
[7] abbreviates: Rattus norvegicus, Sciatic nerve, read-out: ED50.

`O=C1N=C(O)OC12CCOc1ccc(Cl)cc12` (single isomer, unassigned; (-)): in assay [1], it took 1 µM to reach half-maximal inhibition (IC50).

For the molecule `O=C1NC(=O)C2(CCOc3ccc(F)cc32)O1` (stereo not given), in assay [2] (setting [7]), the ED50 (commonly the midpoint of the dose-response relation) was over 1.5 mg/kg. In assay [3], the half-maximal inhibitory concentration (IC50) (as a rule, the concentration that gives 50% inhibition) was found to be 10 µM.

For the molecule `O=C1NC(=O)C2(CCCc3ccccc32)O1` (stereo not given), the ED50 entry in assay [4] was “inactive”. Further, in assay [1], the IC50 is 100 µM.

For `O=C1NC(=O)C2(CCOc3c(Cl)cc(Cl)cc32)O1` (stereo in doubt; 23), the ED50 in assay [2] came to 1.5 mg/kg.

Take `O=C1NC(=O)C2(CCSc3ccccc32)O1` (stereo not given): the 50% effective dose (ED50) in assay [2] (setting [7]) is 25 mg/kg. Besides, inhibition in assay [1] was half-maximal at 10 µM (IC50).

Consider `Cc1cc(Cl)cc2c1OCCC21OC(=O)NC1=O` (stereo not given), for which the ED50 in assay [2] (setting [7]) was over 1.5 mg/kg. For the same molecule, in assay [3], the IC50 came out at 10 µM.

The molecule `O=C1N=C(O)OC12CCOc1ccc(Cl)cc12` (single isomer, unassigned; (+)) displayed an IC50 in assay [5] of 1000 µM. In other words, the millimolar range.

For `O=C1N=C(O)OC12CCOc1c(Cl)cc(Cl)cc12` (single isomer, unassigned; (+)), in assay [1], half-maximal inhibition (IC50) required 100 µM.

For the molecule `O=C1NC(=O)C2(CCOc3ccccc32)O1` (stereo not given), half-maximal inhibition in assay [1] (IC50) required 100 µM.

Turning to `O=C1NC(=O)C2(CCOc3c(Cl)cc(Cl)cc32)O1` (stereo in doubt; 14), in assay [2] (setting [7]), the 50% effective dose (ED50) was over 1.5 mg/kg. This molecule came in with a 50% inhibitory concentration (IC50) in assay [6] of 1 µM.

`O=C1NC(=O)C2(CCOc3ccc(Br)cc32)O1` (stereo not given): the 50% effective dose (ED50) in assay [2] (setting [7]) was over 1.5 mg/kg. In assay [1], the IC50 was determined as 1 µM.

Consider `O=C1NC(=O)C2(CCOc3ccc(Cl)cc32)O1` (stereo not given), for which the ED50 in assay [2] (setting [7]) was over 1.5 mg/kg. In assay [3], this molecule showed an IC50 of 10 µM.

As for `O=C1NC(=O)C2(CCSc3ccc(F)cc32)O1` (stereo not given), in assay [2] (setting [7]), the median effective dose (ED50) was 25 mg/kg. Besides, in assay [1], the midpoint of inhibition, the IC50, lay at 10 µM.

For the molecule `O=C1NC(=O)C2(CCSc3ccc(Cl)cc32)O1` (stereo not given), the 50% effective dose (ED50) in assay [2] (setting [7]) is over 1.5 mg/kg. The IC50 in assay [3] came out at 10 µM.

In the case of `O=C1NC(=O)C2(CCc3ccccc32)O1` (stereo not given), the 50% effective dose (ED50) in assay [2] (setting [7]) was over 25 mg/kg. The IC50 in assay [1] was 100 µM.
